One may read the IC50 as the point on the concentration scale where inhibition reaches its midpoint. The EC50 is the concentration that produces a half-maximal response.

The subject of assay [1] is HCT116 cells. Briefly: Anti-tumor cell proliferation activity of compound of formula (D-H), Cell-Titer Glo, HCT116. The class given is cell-based. As to conditions: Homo sapiens, HCT-116, 72 h. As for the experimental part: (§1) Cell culture: HCT116 cells and SKBR3 cells were cultured with a McCoy's 5a medium containing 10% fetal bovine serum+1% penicillin-streptomycin at 37° C. with 5% CO2, and OVCAR3 cells were cultured with a 1640 medium containing 20% fetal bovine serum+2 μg/mL bovine insulin+1% penicillin-streptomycin at 37° C. with 5% CO2. Cells at logarithmic growth phase were available for the experiment.
(§2) Cell proliferation activity test: The Cell-Titer Glo reagent was used to test the compound for inhibitory activity on proliferation of the three cell strains HCT116, SKBR3, and OVCAR3. HCT116 cells (1500 per well), SKBR3 cells (3000 per well), and OVCAR3 cells (5000 per well) were seeded on 96-well plates and incubated at 37° C. with 5% CO2 for 24 h. After a solution of the compound to be detected was added (the compound was dissolved in DMSO so that the compound concentration was 1 mM, then the compound was diluted to […] in DMSO at 9 concentrations in a 3-fold dilution, and 10 μL of the prepared compound solution was transferred to the 96-well plate so that the final concentration was 0-300 nM), the mixture was incubated at 37° C. with 5% CO2. HCT116 cells were cultured for 3 days, and SKBR3 cells and OVCAR3 cells were cultured for 5 days. The Cell-Titer Glo reagent was added and the cell activity was measured.
(§3) A negative control group and a positive control group were respectively used as Bottom and Top. The negative control group was not added with cells, only added with the culture medium in the same volume, and other operations were consistent with those of the experimental group. The positive control group was not added with the test drug, and other operations were consistent with those of the experimental group.
(§4) Data analysis: % Inhibition was calculated, and compound IC50 was fitted.
(§5) % Inhibition=1-100%×(Signal−Bottom)/(Top−Bottom).
(§6) Signal referred to the signal value of the experimental group, Bottom referred to the average signal value of the negative control group, and Top referred to the average signal value of the positive control group.

Assay [2] relates to SKBR3 cells. As to the kind of experiment: Anti-tumor cell proliferation activity of compound of formula (D-H), Cell-Titer Glo, SKBR3. Type of assay: cell-based, human. How it is done: as §1, §2, §3, §4, §5, §6
The subject of assay [3] is OVCAR3 cells. As to the kind of experiment: Anti-tumor cell proliferation activity of compound of formula (D-H), Cell-Titer Glo, OVCAR3. Type of assay: cell-based. As to conditions: Homo sapiens, OVCAR-3, 120 h. How it is done:
as §1, §2, §3, §4, §5, §6

The target of assay [4] is human ROR1 on stably transfected cell strain MCF7-hROR1 clone 2G2 (human, UniProt Q01973 30-406). As to the kind of experiment: flow cytometry (FACS) on MCF7-hROR1 clone 2G2 cells, 5-fold dilutions from 100 nM, Alexa Fluor 647 anti-human IgG secondary antibody, four-parameter fit. As for the experimental part:
Stably transfected cell strain MCF7-hROR1 clone 2G2 constructed in the steps described above was expanded to a logarithmic growth phase in a T-75 cell culture flask, and the medium supernatant was discarded after centrifugation. The cell pellet was washed twice with PBS. […] After the mixture was washed twice with PBS, a secondary antibody was added: Alexa Fluor® 647 AffiniPure Goat Anti-Human IgG (H+L) (purchased from Jackson Immuno, Cat. No: 109-605-088), and the mixture was incubated at 4° C. for 1 h. After the mixture was washed twice with PBS, the cells were resuspended, and detected and analyzed by FACS (FACS Canto™, purchased from BD Biosciences). Data were analyzed by four-parameter curve fitting using Graphpad Prism software to give EC₅₀ values.
Background: In flow cytometry, cells or beads pass a laser one at a time.

Where [5] appears, read: read-out: HCT116 Antiproliferative activity IC50 (nM), HCT116 cells, 3 days.
Setting [6] is: Homo sapiens, SK-BR-3, 120 h, read-out: SKBR3 Antiproliferative activity IC50 (nM), SKBR3 cells, 5 days.
Setting [7] is: read-out: OVCAR3 Antiproliferative activity IC50 (nM).

Where two headings read alike, the source gives them in different places.

For `CC[C@@]1(O)C(=O)OCc2c1cc1n(c2=O)Cc2c-1nc1cc3c(cc1c2CNC(=O)C(O)C1CC1)OCO3` (stereo partly drawn) [Compound 14-P2, 2-cyclopropyl-N—(((S)-7-ethyl-7-hydroxy-8,11-dioxo-7,8,11,13-tetrahydro-10H-[1,3]dioxolo[4,5-g]pyrano[3′,4′:6,7]indolizino[1,2-b]quinolin-14-yl)methyl)-2-hydroxyacetamide], the IC50 in assay [1] (HCT116 cells, 3 days, read-out: HCT116 Antiproliferative activity IC50) was 10 to 100 nM; in assay [2] (read-out: SKBR3 Antiproliferative activity IC50, SKBR3 cells, 5 days) it was 3.5 nM; in assay [3] (OVCAR3 cells, 5 days, read-out: OVCAR3 Antiproliferative activity IC50), 1 nM.

In the case of `CC[C@@]1(O)C(=O)OCc2c1cc1n(c2=O)Cc2c-1nc1cc(F)c(Cl)c(F)c1c2CNC(=O)CO` [Compound 21, (S)-N-((9-chloro-4-ethyl-8,10-difluoro-4-hydroxy-3,14-dioxo-3,4,12,14-tetrahydro-1H-pyrano[3′,4′:6,7]indolizino[1,2-b]quinolin-11-yl)methyl)-2-hydroxyacetamide], the IC50 in assay [1] (setting [5]) was below 10 nM; in assay [2] (setting [6]), 4 nM; in assay [3] (setting [7]), 1.7 nM.

As to `CC[C@@]1(O)C(=O)OCc2c1cc1n(c2=O)Cc2c-1nc1cc(F)c(Cl)c(F)c1c2CNC(=O)C(C)(C)O` [Compound 22, (S)-N-((9-chloro-4-ethyl-8,10-difluoro-4-hydroxy-3,14-dioxo-3,4,12,14-tetrahydro-1H-pyrano[3′,4′:6,7]indolizino[1,2-b]quinolin-11-yl)methyl)-2-hydroxy-2-methylpropanamide], the concentration for half-maximal inhibition (IC50) is below 10 nM in assay [1] (setting [5]), 3.5 nM in assay [2] (setting [6]) and 1.4 nM in assay [3] (setting [7]).

As to `CC[C@@]1(O)C(=O)OCc2c1cc1n(c2=O)Cc2c-1nc1cc(F)c(Cl)c(F)c1c2CNC(=O)C(O)C1CC1` (stereo partly drawn) [Compound 23, N—(((S)-9-chloro-4-ethyl-8,10-difluoro-4-hydroxy-3,14-dioxo-3,4,12,14-tetrahydro-1H-pyrano[3′,4′:6,7]indolizino[1,2-b]quinolin-11-yl)methyl)-2-cyclopropyl-2-hydroxyacetamide], the values for the IC50 in assay [1] (setting [5]), in assay [2] (setting [6]) and in assay [3] (setting [7]) were below 10 nM, 5.3 nM and 3.9 nM, respectively.

For `CC[C@@]1(O)C(=O)OCc2c1cc1n(c2=O)Cc2c-1nc1cc(F)c(Cl)c(F)c1c2CNC(=O)[C@@H](C)O` [Compound 25, (R)—N—(((S)-9-chloro-4-ethyl-8,10-difluoro-4-hydroxy-3,14-dioxo-3,4,12,14-tetrahydro-1H-pyrano[3′,4′:6,7]indolizino[1,2-b]quinolin-11-yl)methyl)-2-hydroxypropanamide], the IC50 in assay [1] (setting [5]) is below 10 nM; in assay [2] (setting [6]), 3.7 nM; in assay [3] (setting [7]) it was 2 nM. Taken in the same sequence, the figures for `CC[C@@]1(O)C(=O)OCc2c1cc1n(c2=O)Cc2c-1nc1cc(F)c(Cl)c(F)c1c2CNC(=O)[C@H](C)O` [Compound 26, (S)-N-(((S)-9-chloro-4-ethyl-8,10-difluoro-4-hydroxy-3,14-dioxo-3,4,12,14-tetrahydro-1H-pyrano[3′,4′:6,7]indolizino[1,2-b]quinolin-11-yl)methyl)-2-hydroxypropanamide] were below 10 nM, 4.2 nM and 1.6 nM. For the molecule `CC[C@@]1(O)C(=O)OCc2c1cc1n(c2=O)Cc2c-1nc1cc3c(c(F)c1c2CNC(=O)C(O)C1CC1)OCO3` (stereo partly drawn) [Compound 35, 2-cyclopropyl-N-(((S)-7-ethyl-15-fluoro-7-hydroxy-8,11-dioxo-7,8,11,13-tetrahydro-10H-[1,3]dioxolo[4,5-g]pyrano[3′,4′:6,7]indolizino[1,2-b]quinolin-14-yl)methyl)-2-hydroxyacetamide], the IC50 in assay [1] (setting [5]) is below 10 nM; in assay [2] (setting [6]), 3.5 nM; in assay [3] (setting [7]), 1.2 nM.

B1: ADC-L1-19-9 (antibody, human IgG1, kappa, V domains shown)
VH: EVQLLESGGGLVQPGGSLRLSCAASGFTFSNYAMSWVRQAPGKGLEWVSSISHNSGSTYYADSVKGRFTISRDNSKNTLYLQMNSLRAEDTAVYYCAKFISARKSLGRSYSNGMDVWGQGTLVTVSS
VL: QSVLTQPPSASGTPGQRVTISCTGSSSNIGSNDVTWYQQLPGTAPKLLIYADSKRPSGVPDRFSGSKSGTSASLAISGLRSEDEADYYCGTWDYSLSGYVFGGGTKLTVLR
modifications: drug-linker L1-19 on cysteine thiols after TCEP reduction; positions not given; DAR 7.3 for the whole conjugate
notes: Antibody-drug conjugate
As to B1, the concentration giving a half-maximal response (EC50) in assay [4] was determined as 0.42 nM.

B2: ADC-L1-0-9 (antibody, human IgG1, kappa, V domains shown)
VH: EVQLLESGGGLVQPGGSLRLSCAASGFTFSNYAMSWVRQAPGKGLEWVSSISHNSGSTYYADSVKGRFTISRDNSKNTLYLQMNSLRAEDTAVYYCAKFISARKSLGRSYSNGMDVWGQGTLVTVSS
VL: QSVLTQPPSASGTPGQRVTISCTGSSSNIGSNDVTWYQQLPGTAPKLLIYADSKRPSGVPDRFSGSKSGTSASLAISGLRSEDEADYYCGTWDYSLSGYVFGGGTKLTVLR
modifications: drug-linker L1-0 on cysteine thiols after TCEP reduction; positions not given; DAR 5.5 for the whole conjugate
In assay [4], B2 came in with an EC50 of 0.43 nM.

B3: ROR1-Ab-2 (antibody, human IgG1, kappa, V domains shown)
VH: EVQLLESGGGLVQPGGSLRLSCAASGFTFSNYAMSWVRQAPGKGLEWVSSISHNSGSTYYADSVKGRFTISRDNSKNTLYLQMNSLRAEDTAVYYCAKFISARKSLGRSYSNGMDVWGQGTLVTVSS
VL: QSVLTQPPSASGTPGQRVTISCTGSSSNIGSNDVTWYQQLPGTAPKLLIYADSKRPSGVPDRFSGSKSGTSASLAISGLRSEDEADYYCGTWDYSLSGYVFGGGTKLTVLR
notes: also called anti-human ROR1 monoclonal antibody ROR1-Ab-2
B3 returned a concentration for a half-maximal effect (EC50) in assay [4] of 0.98 nM.

B4: ADC-L1-19-P1-9 (antibody, human IgG1, kappa, V domains shown)
VH: EVQLLESGGGLVQPGGSLRLSCAASGFTFSNYAMSWVRQAPGKGLEWVSSISHNSGSTYYADSVKGRFTISRDNSKNTLYLQMNSLRAEDTAVYYCAKFISARKSLGRSYSNGMDVWGQGTLVTVSS
VL: QSVLTQPPSASGTPGQRVTISCTGSSSNIGSNDVTWYQQLPGTAPKLLIYADSKRPSGVPDRFSGSKSGTSASLAISGLRSEDEADYYCGTWDYSLSGYVFGGGTKLTVLR
modifications: drug-linker L1-19-P1 on cysteine thiols after TCEP reduction; positions not given; DAR 7.7 for the whole conjugate
notes: Antibody-drug conjugate
In the case of B4, it took 0.5 nM to reach a half-maximal effect in assay [4] (EC50).

B5: ADC-L1-19-8 (antibody, human IgG1, kappa, V domains shown)
VH: QVQLQESGPGLVKPSQTLSLTCTVSGYAFTAYNIHWVRQAPGQGLEWMGSFDPYDGGSSYNQKFKDRLTISKDTSKNQVVLTMTNMDPVDTATYYCARGWYYFDYWGHGTLVTVSS
VL: DIVMTQTPLSLPVTPGEPASISCRASKSISKYLAWYQQKPGQAPRLLIYSGSTLQSGIPPRFSGSGYGTDFTLTINNIESEDAAYYFCQQHDESPYTFGEGTKVEIKR
modifications: drug-linker L1-19 on cysteine thiols after TCEP reduction; positions not given; DAR 7.1 for the whole conjugate
notes: Antibody-drug conjugate
In turn, B5 yielded a concentration for a half-maximal effect (EC50) in assay [4] of 0.68 nM.

B6: ROR1-Ab-1 (antibody, human IgG1, kappa, V domains shown)
VH: QVQLQESGPGLVKPSQTLSLTCTVSGYAFTAYNIHWVRQAPGQGLEWMGSFDPYDGGSSYNQKFKDRLTISKDTSKNQVVLTMTNMDPVDTATYYCARGWYYFDYWGHGTLVTVSS
VL: DIVMTQTPLSLPVTPGEPASISCRASKSISKYLAWYQQKPGQAPRLLIYSGSTLQSGIPPRFSGSGYGTDFTLTINNIESEDAAYYFCQQHDESPYTFGEGTKVEIKR
notes: also called anti-human ROR1 monoclonal antibody ROR1-Ab-1
B6: the midpoint of the response in assay [4], the EC50, lay at 0.99 nM.

B7: ADC-L1-0-8 (antibody, human IgG1, kappa, V domains shown)
VH: QVQLQESGPGLVKPSQTLSLTCTVSGYAFTAYNIHWVRQAPGQGLEWMGSFDPYDGGSSYNQKFKDRLTISKDTSKNQVVLTMTNMDPVDTATYYCARGWYYFDYWGHGTLVTVSS
VL: DIVMTQTPLSLPVTPGEPASISCRASKSISKYLAWYQQKPGQAPRLLIYSGSTLQSGIPPRFSGSGYGTDFTLTINNIESEDAAYYFCQQHDESPYTFGEGTKVEIKR
modifications: drug-linker L1-0 on cysteine thiols after TCEP reduction; positions not given; DAR 6.6 for the whole conjugate
In assay [4], B7 returned an EC50 of 0.75 nM.

B8: ADC-L1-19-P1-8 (antibody, human IgG1, kappa, V domains shown)
VH: QVQLQESGPGLVKPSQTLSLTCTVSGYAFTAYNIHWVRQAPGQGLEWMGSFDPYDGGSSYNQKFKDRLTISKDTSKNQVVLTMTNMDPVDTATYYCARGWYYFDYWGHGTLVTVSS
VL: DIVMTQTPLSLPVTPGEPASISCRASKSISKYLAWYQQKPGQAPRLLIYSGSTLQSGIPPRFSGSGYGTDFTLTINNIESEDAAYYFCQQHDESPYTFGEGTKVEIKR
modifications: drug-linker L1-19-P1 on cysteine thiols after TCEP reduction; positions not given; DAR 7.7 for the whole conjugate
notes: Antibody-drug conjugate
In assay [4], B8 yielded an EC50 of 0.34 nM.

Source of the values: US20250304717A1, “CAMPTOTHECIN DERIVATIVE AND LIGAND-DRUG CONJUGATE” (HAINAN SIMCERE ZAIMING PHARMACEUTICAL CO., LTD., priority 2022, published 2025).
